The results in this text go back to ChEMBL document CHEMBL4000164, “(+)-and (-)-Phenazocine enantiomers: Evaluation of their dual opioid agonist/σ1 antagonist properties and antinociceptive effects” (Eur J Med Chem, 2017).

pKi: −log10 of the molar value. Active and inactive are the calls of the source. The calls are words filed in the database; no cut-off is given here.

The subject of assay [1] is Mus musculus. Briefly: Antinociceptive activity in sc dosed CD-1 mouse mechanical stimulus-induced nociception model assessed as struggle response latency administered 30 mins prior to test by paw pressure test. It is filed as functional, organism-based.
Assay [2] deals with Mus musculus. Briefly: Antinociceptive activity in CD-1 mouse mechanical stimulus-induced nociception model assessed as struggle response latency at 8 mg/kg, sc administered 30 mins prior to test in presence of peripherally restricted opioid antagonist Nx-M by paw pressure test. It is filed as functional, organism-based.
Assay [3] relates to Mus musculus. Briefly: Analgesic activity in mouse administered subcutaneously by hot plate assay. The note with it: sc. In general terms: Thermal pain tests record how soon the animal reacts.
For assay [4], the system named is Mus musculus. The assay can be described thus: Antinociceptive activity in CD-1 mouse mechanical stimulus-induced nociception model assessed as struggle response latency at 8 mg/kg, sc administered 30 mins prior to test in presence of sigma1 receptor agonist PRE-084 by paw pressure test. It is filed as functional, organism-based.
Assay [5] concerns Mus musculus. The assay can be described thus: Antinociceptive activity in CD-1 mouse mechanical stimulus-induced nociception model assessed as struggle response latency at 8 mg/kg, sc administered 30 mins prior to test in presence of centrally penetrant opioid antagonist Nx by paw pressure test. It is filed as functional, organism-based.
The target of assay [6] is T1, Kappa-type opioid receptor (Cavia porcellus, UniProt P41144). Briefly: Displacement of [3H]-Ethylketazocine from kappa opioid receptor in guinea pig brain membranes after 40 mins. Format: cell membranes, Membrane.
The nature of assay [7]: Displacement of [3H]-[D-Ala2,D-Leu5]enkephalin from delta opioid receptor in guinea pig brain membranes after 40 mins. Format: cell membranes, Cavia porcellus, Membrane.
For assay [8], the target named is Sigma non-opioid intracellular receptor 1 (Mus musculus, UniProt O55242). Briefly: Displacement of [3H]-(+)-pentazocin from sigma1 receptor in mouse brain P2 membranes after 240 mins by liquid scintillation counting method. It is filed as cell membranes. (Displacement assays read how much labelled ligand stays bound in the presence of the test substance.)
Assay [9] has as its target Mu-type opioid receptor (Cavia porcellus, UniProt P97266). The assay can be described thus: Displacement of [3H]-[D-Ala2,MePhe4Gly-ol5]enkephalin from mu opioid receptor in guinea pig brain membranes after 40 mins. Format: cell membranes, Membrane.
Assay [10] addresses Mu-type opioid receptor (Rattus norvegicus, UniProt P33535). Briefly: Displacement of [3H] DAMGO from mu opioid receptor in Sprague-Dawley rat whole brain membranes after 2.5 hrs by liquid scintillation method. On the set-up: species or system Membrane.
The subject of assay [11] is Mus musculus. The assay can be described thus: Antinociceptive activity in CD-1 mouse mechanical stimulus-induced nociception model assessed as struggle response latency at 4 mg/kg, sc administered 30 mins prior to test in presence of centrally penetrant opioid antagonist Nx by paw pressure test. It is filed as functional, organism-based.
In assay [12] the test system is Mus musculus. Briefly: Antinociceptive activity in CD-1 mouse mechanical stimulus-induced nociception model assessed as struggle response latency at 2 to 8 mg/kg, sc administered 30 mins prior to test by paw pressure test. It is filed as functional, organism-based.
The subject of assay [13] is Mus musculus. Briefly: Antinociceptive activity in CD-1 mouse mechanical stimulus-induced nociception model assessed as struggle response latency at 4 mg/kg, sc administered 30 mins prior to test in presence of sigma1 receptor agonist PRE-084 by paw pressure test. It is filed as functional, organism-based.
Assay [14] addresses T1, Kappa-type opioid receptor. The assay can be described thus: Displacement of [3H]U69,593 from kappa opioid receptor in guinea pig brain membranes by liquid scintillation counter method. Format: cell membranes, Membrane.
Assay [15] deals with Delta-type opioid receptor (Rattus norvegicus, UniProt P33533). The assay can be described thus: Displacement of [3H]DPDPE from delta opioid receptor in Sprague-Dawley rat brain membranes by liquid scintillation counter method. It is filed as cell membranes, Membrane.
For assay [16], the system named is Mus musculus. The assay can be described thus: Antinociceptive activity in CD-1 mouse mechanical stimulus-induced nociception model assessed as struggle response latency at 4 mg/kg, sc administered 30 mins prior to test in presence of peripherally restricted opioid antagonist Nx-M by paw pressure test. Format: functional, organism-based.
The subject of assay [17] is Mus musculus. The assay can be described thus: Antinociceptive activity in CD-1 mouse mechanical stimulus-induced nociception model assessed as struggle response latency time at 0.5 mg/kg, sc administered 30 mins prior to test in presence of peripherally restricted opioid antagonist Nx-M by paw pressure test. Format: functional, organism-based.
Assay [18] has as its system Mus musculus. The assay can be described thus: Antinociceptive activity in CD-1 mouse mechanical stimulus-induced nociception model assessed as struggle response latency at 0.25 mg/kg, sc administered 30 mins prior to test in presence of centrally penetrant opioid antagonist Nx by paw pressure test. It is filed as functional, organism-based.
Assay [19] deals with Mus musculus. Briefly: Antinociceptive activity in CD-1 mouse mechanical stimulus-induced nociception model assessed as struggle response latency time at 0.5 mg/kg, sc administered 30 mins prior to test by paw pressure test. It is filed as functional.
In assay [20] the test system is Mus musculus. Briefly: Antinociceptive activity in CD-1 mouse mechanical stimulus-induced nociception model assessed as struggle response latency time at 0.5 mg/kg, sc administered 30 mins prior to test in presence of centrally penetrant opioid antagonist Nx by paw pressure test. It is filed as functional, organism-based.
Assay [21] relates to Mus musculus. The assay can be described thus: Antinociceptive activity in CD-1 mouse mechanical stimulus-induced nociception model assessed as struggle response latency at 0.125 to 0.5 mg/kg, sc administered 30 mins prior to test by paw pressure test. It is filed as functional, organism-based.
The test system of assay [22] is Mus musculus. Briefly: Antinociceptive activity in CD-1 mouse mechanical stimulus-induced nociception model assessed as struggle response latency at 0.25 mg/kg, sc administered 30 mins prior to test in presence of sigma1 receptor agonist PRE-084 by paw pressure test. It is filed as functional, organism-based.
The test system of assay [23] is Mus musculus. Briefly: Antinociceptive activity in CD-1 mouse mechanical stimulus-induced nociception model assessed as struggle response latency at 0.25 mg/kg, sc administered 30 mins prior to test in presence of peripherally restricted opioid antagonist Nx-M by paw pressure test. It is filed as functional, organism-based.
Assay [24] relates to Mus musculus. The assay can be described thus: Antinociceptive activity in CD-1 mouse mechanical stimulus-induced nociception model assessed as struggle response latency time at 0.5 mg/kg, sc administered 30 mins prior to test in presence of sigma1 receptor agonist PRE-084 by paw pressure test. It is filed as functional, organism-based.
The target of assay [25] is Kappa-type opioid receptor (Homo sapiens, UniProt P41145). The assay can be described thus: Binding affinity to kappa opioid receptor (unknown origin).
Assay [26] deals with Delta-type opioid receptor (Homo sapiens, UniProt P41143). The assay can be described thus: Binding affinity to delta opioid receptor (unknown origin).
Sequence of Delta-type opioid receptor (Homo sapiens, UniProt P41143) (P41143 whole entry): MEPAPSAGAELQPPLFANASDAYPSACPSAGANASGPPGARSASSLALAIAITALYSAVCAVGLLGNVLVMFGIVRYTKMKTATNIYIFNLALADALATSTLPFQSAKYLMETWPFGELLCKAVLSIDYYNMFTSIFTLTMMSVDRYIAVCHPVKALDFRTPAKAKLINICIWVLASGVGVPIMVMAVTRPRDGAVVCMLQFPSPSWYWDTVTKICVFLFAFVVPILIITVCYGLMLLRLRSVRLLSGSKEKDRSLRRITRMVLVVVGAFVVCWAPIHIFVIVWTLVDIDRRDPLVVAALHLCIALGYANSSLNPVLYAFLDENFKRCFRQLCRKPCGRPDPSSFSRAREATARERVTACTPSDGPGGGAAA

Sequence of Mu-type opioid receptor (Rattus norvegicus, UniProt P33535) (P33535 whole entry): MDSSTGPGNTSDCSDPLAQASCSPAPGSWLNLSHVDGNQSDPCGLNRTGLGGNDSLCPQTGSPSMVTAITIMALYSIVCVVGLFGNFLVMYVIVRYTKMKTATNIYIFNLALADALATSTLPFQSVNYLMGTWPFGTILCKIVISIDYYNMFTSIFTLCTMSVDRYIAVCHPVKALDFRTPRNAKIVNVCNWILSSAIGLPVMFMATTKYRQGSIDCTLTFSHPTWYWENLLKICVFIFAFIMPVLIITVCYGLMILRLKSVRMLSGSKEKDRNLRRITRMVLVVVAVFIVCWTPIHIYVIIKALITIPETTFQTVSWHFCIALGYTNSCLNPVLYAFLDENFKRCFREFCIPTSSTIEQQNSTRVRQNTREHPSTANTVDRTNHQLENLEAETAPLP
T1 sequence (P41144 whole entry): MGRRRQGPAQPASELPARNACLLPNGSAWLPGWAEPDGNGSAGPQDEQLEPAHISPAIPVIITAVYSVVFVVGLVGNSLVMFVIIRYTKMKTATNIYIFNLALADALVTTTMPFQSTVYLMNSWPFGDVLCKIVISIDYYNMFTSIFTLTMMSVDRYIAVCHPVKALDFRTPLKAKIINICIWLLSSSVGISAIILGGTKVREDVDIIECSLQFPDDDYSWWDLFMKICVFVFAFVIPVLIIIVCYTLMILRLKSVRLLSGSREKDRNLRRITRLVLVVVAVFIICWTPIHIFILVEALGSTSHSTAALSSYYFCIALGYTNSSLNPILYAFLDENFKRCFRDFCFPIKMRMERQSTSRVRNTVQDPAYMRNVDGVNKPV
Sequence of Kappa-type opioid receptor (Homo sapiens, UniProt P41145) (P41145 whole entry): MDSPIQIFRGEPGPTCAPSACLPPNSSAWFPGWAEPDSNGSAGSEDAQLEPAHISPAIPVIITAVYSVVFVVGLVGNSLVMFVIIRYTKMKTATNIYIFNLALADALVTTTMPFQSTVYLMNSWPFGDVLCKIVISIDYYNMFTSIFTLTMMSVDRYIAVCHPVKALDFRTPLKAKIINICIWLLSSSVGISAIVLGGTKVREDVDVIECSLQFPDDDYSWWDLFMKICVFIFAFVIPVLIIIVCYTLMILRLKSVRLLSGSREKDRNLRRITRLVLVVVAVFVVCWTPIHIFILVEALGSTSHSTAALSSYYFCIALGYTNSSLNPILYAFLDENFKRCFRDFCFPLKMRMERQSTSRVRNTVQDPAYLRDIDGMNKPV
Sequence of Sigma non-opioid intracellular receptor 1 (O55242 whole entry): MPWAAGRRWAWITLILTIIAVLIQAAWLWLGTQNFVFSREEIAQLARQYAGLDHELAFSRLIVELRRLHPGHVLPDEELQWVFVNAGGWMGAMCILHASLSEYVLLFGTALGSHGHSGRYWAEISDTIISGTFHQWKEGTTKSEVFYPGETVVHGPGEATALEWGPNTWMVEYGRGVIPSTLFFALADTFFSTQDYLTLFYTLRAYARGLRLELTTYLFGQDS
Sequence of Mu-type opioid receptor (Cavia porcellus, UniProt P97266) (P97266 whole entry): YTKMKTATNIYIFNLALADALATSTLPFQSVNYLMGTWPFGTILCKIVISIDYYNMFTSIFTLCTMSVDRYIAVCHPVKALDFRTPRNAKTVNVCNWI
Sequence of Delta-type opioid receptor (Rattus norvegicus, UniProt P33533) (P33533 whole entry): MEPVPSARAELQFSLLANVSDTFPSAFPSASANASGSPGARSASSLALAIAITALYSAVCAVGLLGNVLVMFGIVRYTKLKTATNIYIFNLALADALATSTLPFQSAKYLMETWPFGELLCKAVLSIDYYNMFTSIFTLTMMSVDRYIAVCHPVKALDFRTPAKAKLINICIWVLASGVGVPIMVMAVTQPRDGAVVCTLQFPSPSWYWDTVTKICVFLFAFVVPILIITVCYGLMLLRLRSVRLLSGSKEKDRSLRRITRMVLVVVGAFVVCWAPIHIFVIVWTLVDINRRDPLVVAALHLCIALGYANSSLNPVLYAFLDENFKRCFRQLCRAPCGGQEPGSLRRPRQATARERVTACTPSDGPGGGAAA

As usually defined, the ED50 is the midpoint of the dose-response relation. For `CN1CC[C@]23c4c5ccc(O)c4O[C@H]2[C@@H](O)C=C[C@H]3[C@H]1C5` [MORPHINE], the Activity entry in the assay with Mus musculus [1] was “Dose-dependent effect”. Further, the outcome with Mus musculus [2] and in the assay on Mus musculus [4] was Active. Also, the ED50 in the assay with Mus musculus [3] was 6.7 mg/kg. Besides, the outcome in the assay with Mus musculus [5] was inactive.

The term pKi denotes the negative decadic logarithm of the Ki, by convention in mol/L. A higher pKi goes with a small Ki. For `C=CC[N+]1(C)CC[C@]23c4c5ccc(O)c4O[C@H]2C(=O)CC[C@@]3(O)[C@H]1C5` (some centres not stated) [NALOXONE METHIODIDE], the pKi in assay [6] is 6.73; in [7] it was 6.54; in [8], < 6.00; on Mu-type opioid receptor [9], 7.74.

Take `C[C@@H]1[C@@H]2Cc3ccc(O)cc3[C@@]1(C)CCN2CCc1ccccc1`: the negative-log Ki (pKi) at Mu-type opioid receptor [10] is 8.41; in assay [14] it was 6.76; in [15], 6.91. For the same compound, the result in the assay with Mus musculus [11], with Mus musculus [13] and in the assay with Mus musculus [16] was inactive. The result in the assay with Mus musculus [12] was Active.

On Mu-type opioid receptor [10], `C[C@H]1[C@H]2Cc3ccc(O)cc3[C@]1(C)CCN2CCc1ccccc1` had a pKi of 7.21. Besides, the result in the assay with Mus musculus [17], with Mus musculus [18], with Mus musculus [20], with Mus musculus [22], in the assay on Mus musculus [23] and with Mus musculus [24] was inactive. In addition, in the assay with Mus musculus [19], the Time came to 20 s. Besides, the outcome in the assay with Mus musculus [21] was Active.

For `O=C(OCCN1CCOCC1)C1(c2ccccc2)CCCCC1`, the pKi in assay [25] and in assay [26] was < 5.40 throughout.
